“Also recorded” adds a separate entry of the source. Like-named read-outs stand apart in the source and are kept apart here. Blank lines part the entries; values can stand above or below the compound they belong to.
Experiments:
[1] = system: murine primary cortical neurons; experiment: Amyloid beta-induced toxicity in murine primary cortical neurons (LDH release, MTT); assay type: cell-based, mice; details: 24 hours incubation with Aβ1-42 at 20 μM; for Cell viabilities after Aβ1-42: compound 5, 10 or 30 μM
Procedure: FIG. 13A-B is a set of two bar graphs depicting cell viability of murine primary cortical neurons exposed to 20 μM amyloid beta (Aβ) and treated with memantine, ACS48, or S-memantine at 5, 10, or 30 μM. Cell viability was estimated by LDH release assay in the left graph and MTT assay in the right graph.

[2] = system: murine primary cortical neurons; experiment: Intracellular calcium level [Ca2+]i (Fura-2/AM) with or without glutamate; assay type: cell-based, mice
SH-SY5Y cells [3] = experiment: Intracellular sulfide levels in SH-SY5Y cells (HPLC); assay type: cell-based, Human
Procedure: Human neuroblastoma SH-SY5Y cells were cultured in Eagle's medium/Ham's F-12 50/50 Mix (DMEM/F12, Cellgro by Mediatech, Inc.) supplemented with 10% fetal bovine serum (FBS) and 1% penicillin/streptomycin. The cells were seeded into 96 well plates (2×10^4 cells per well) for OGD and measurements of toxicity, 6 cm dishes (5×10^5 cells per dish) for measurements of sulfide and reduced-glutathione (GSH), or 10 cm dishes (1×10^6 cells per dish) for measurements of intracellular calcium. Cell culture medium was replaced every 2 days, and the cultures were maintained at 37° C. in 95% air/5% CO2 in a humidified incubator. Cells were used after reaching 80% confluent.
Concentration of free sulfide in SH-SY5Y cells was measured using high performance liquid chromatography (HPLC) (Tokuda et al. (2012) Antioxidants & Redox Signaling). Briefly, SH-SY5Y cells were seeded into 6 cm dishes (5×10^5 cells per dish). After being 80% confluent, 20 μM H2S donor was added to the dish and incubated at 37° C. Cells were washed with ice-cold Tris-HCl (100 mM, PH 9.5, DTPA 0.1 mM) buffer, scraped, transferred to microfuge tubes, and centrifuged. MBB (10 mM in acetonitrile, 50 μl) was added to 100 μl of supernatant. After 30 minutes of incubation at room temperature in dark, 50 μl of 200 mM 5-sulfosalicylic acid (SSA) was added. After centrifugation, supernatant was analyzed by HPLC. For sulfide levels in medium, after centrifugation, supernatant was used for MBB reaction as above.
In contrast, incubation of SH-SY5Y cells with S-memantine increased intracellular sulfide level more markedly than incubation with ACS48 at all time points after addition (˜10 fold at 4 hours, P<0.001 by two-way ANOVA with Bonferroni post-test). In a separate experiment, we examined whether or not incubation with memantine itself or incubation with ACS48 and memantine would affect intracellular sulfide levels in SH-SY5Y cells.

[4] = system: murine primary cortical neurons; experiment: Cytotoxicity of H2S donors to murine primary cortical neurons (LDH release); assay type: cell-based, mice; details: 24 hours
Procedure: (§1) A microtiter plate containing cells was centrifuged at 250×g for 10 minutes and the supernatant was used for LDH measurement with LDH Cytotoxicity Detection Kit (Roche). After aspirating the medium, remaining cells were washed with PBS, then, 100 μl of 1% Triton-X was added to each well, followed by incubation at 37° C. for 30 minutes. Medium and lysates were used for LDH measurement at wavelength 492 nm. Percentage of released LDH was calculated with following formula: {LDH (medium)/LDH (medium+cell)×100}. Average value of control (cells without OGD) was deducted as background.

SH-SY5Y [5] = experiment: Amyloid beta-induced toxicity in SH-SY5Y (LDH release, MTT); assay type: cell-based, Human; details: 24 hours incubation with Aβ1-42 at 20 μM; for Cell viabilities after Aβ1-42: compound 20 or 50 μM
Procedure: FIG. 12A-B is a set of two bar graphs showing cell viability of SH-SY5Y cells exposed to 20 μM amyloid beta (Aβ) and treated with memantine, ACS48, or S-memantine at 20 or 50 μM. Cell viability was estimated by LDH release assay in the left graph and MTT assay in the right graph.

SH-SY5Y [6] = experiment: Intracellular GSH levels in SH-SY5Y (HPLC); assay type: cell-based, Human
Procedure: Intracellular GSH level of SH-SY5Y was measured using HPLC method as previously reported (Kimura et al. (2009) Antioxidants & Redox Signaling 12, 1-13). Briefly, cells were seeded into 6 cm dishes (5×10^5 cells per dish) and treated with 50 μM H2S donors or memantine with or without 2 mM glutamate for 8 hours, followed by washing with ice-cold PBS. Cells were scraped and transferred to a microfuge tube and sonicated. Some fraction of lysate was used for protein assay. After centrifugation, 75 μl of supernatant, 26 μl of 2-(cyclohexylamino) ethanesulfonic acid (CHES, 0.5 M, PH 8.4), and 4 μl of 50 μM MBB were mixed and incubated at room temperature in dark for 30 minutes. Acetic acid (100 μl, 30% v/v) was added, followed by centrifugation at 15,000×g for 10 min after 5 min incubation of the tube on ice. The supernatant was analyzed using HPLC at wavelength of λex=370 nm and λem=486 nm.

[7] = Plasma and cerebral sulfide levels of mice after intraperitoneal administration; assay type: in vivo; details: 25 μmol/kg intraperitoneal, 90 minutes after administration
Description: Blood was drawn from left ventricle and centrifuged to collect the plasma. After perfusion with Tris-HCl buffer via left ventricle, brain was harvested, homogenized in Tris-HCl, and centrifuged. Plasma and supernatant of brain homogenate were derivatized with MBB and analyzed by HPLC.

SH-SY5Y cells [8] = experiment: Oxygen-glucose deprivation (OGD) of SH-SY5Y cells, viability by LDH release, MTT and CV assays; assay type: cell-based, Human
Procedure: OGD for SH-SY5Y was performed by placing cells in a hypoxia chamber ([…] Technologies Inc.) for 15 hours, followed by 24 hours of reoxygenation as previously reported (FIG. 3A) (Serra-Pérez et al. (2008) Journal of Neurochemistry 106, 1237-1247). Briefly, medium was replaced with glucose-free RPMI 1640 with L-glutamine (Cellgro by Mediatech, Inc), deoxygenated with anaerobic gas mixture (93% N2-5% CO2-2% H2) for 30 minutes before use. Cells were then placed in a hypoxia chamber, flushed with anaerobic gas mixture (93% N2-5% CO2-2% H2) and incubated at 37° C. After 15 hours of hypoxia, medium was replaced with DMEM/F12 and incubated for 24 hours at 37° C. in 95% air/5% CO2 in a humidified incubator.
as §1
Ten μl of thiazolyl blue tetrazolium bromide solution (5 mg/ml in PH 7.4 PBS) was added to each well containing 100 μl of medium and cells, followed by incubation at 37° C. for 4 hours in the dark. Isopropanol (100 μl, 0.04 N HCl) was added to dissolve blue dye. After dissolved completely, absorbance was measured with plate-reader (Synergy 2, BioTek Instrument) at test wavelength 570 nm and reference wavelength 670 nm. Cell viability was determined by absorbance at 570 nm and reported as ratio to control cells (without OGD).
After aspirating culture medium, cells were fixed and stained by 0.5% CV in 95% (v/v) ethanol for 5 minutes, then washed by tap water several times. After taking photographs, 1% sodium dodecylsulfate solution was added to each well to elute blue dye. Absorbance was measured with plate-reader at 595 nm of wavelength. Values were shown as ratio to control (cells without OGD).

SH-SY5Y cells [9] = experiment: MPP+-induced cytotoxicity in SH-SY5Y cells (CV, MTT assay); assay type: cell-based, Human; details: 24 h
Procedure: The abilities of ACS48-amantadine, CTBA-memantine, S-memantine, and ACS81-memantine to improve viabilities of SH-SY5Y cells incubated with MPP^+, which has been used for an in-vitro Parkinson's disease model (Robert et al. (2012) Cell Death and Differentiation, 19, 1769-1778), were examined. SH-SY5Y cells (96 well plate, 2×10^5 cells/well) were incubated with MPP^+ (Sigma-Aldrich) at 5 mM in DMEM/F12 at 37° C. for 24 h. ACS48-amantadine, CTBA-memantine, S-memantine, or ACS81-memantine was dissolved in DMSO and added at 5 or 20 μM to the medium 30 min after the addition of MPP^+. The final concentration of DMSO in the medium was adjusted to 0.5% (v/v). Cell viabilities of SH-SY5Y 24 h after the addition of MPP^+ were measured by CV assay or MTT assay.

mice challenged with LPS = experiment: LPS-induced cognitive impairment, Morris water-maze
[10] = system: phosphorylated Akt at threonine 308; experiment: Immunoblot of phosphorylated Akt in SH-SY5Y after OGD; assay type: cell-based, Human; details: 50 μM added 8 hours after end of OGD
[11] = system: phosphorylated tau protein at serine 202 and threonine 205; experiment: LPS-induced tau phosphorylation in mice hippocampus (immunoblot); assay type: in vivo
[12] = time- and dose-range studies, SH-SY5Y
[13] = 20 μM added 30 min after 5 mM MPP+

Plasma sulfide levels [7]: increased plasma sulfide levels
Compound: O=C(O)c1ccc(-c2cssc2=S)cc1 [ACS48, 4-(3-thioxo-3H-1,2-dithiol-4-yl)-benzoic acid]
Cell viabilities after Aβ1-42 compared with memantine [1]: improved cell viabilities more markedly than did memantine | Cell viabilities after Aβ1-42 [1]: improved cell viabilities | Glutamate-induced calcium accumulation ([2]; 20 μM, 100 μM glutamate): augmented glutamate-induced calcium accumulation | Increase of intracellular calcium [Ca2+]i ([2]; 20 μM, without glutamate): increased | Time of peak intracellular sulfide levels after addition (SH-SY5Y cells [3]; 20 μM, SH-SY5Y): around 1.5 hours | Intracellular sulfide levels (SH-SY5Y cells [3]; 20 μM, SH-SY5Y, 37° C.): increased intracellular sulfide levels | LDH release (cytotoxicity) ([4]; 50 μM, without memantine): markedly increased LDH release | Cell viabilities after Aβ1-42 compared with memantine (SH-SY5Y [5]): improved cell viabilities more markedly than did memantine | Cell viabilities after Aβ1-42 (SH-SY5Y [5]): improved cell viabilities | Intracellular GSH levels (SH-SY5Y [6]; 50 μM, 8 hours, with 2 mM glutamate): restored intracellular GSH levels | Intracellular GSH levels (SH-SY5Y [6]; 50 μM, 8 hours, without glutamate): increased intracellular GSH levels | Most effective dose to improve viability after OGD (SH-SY5Y cells [8]; [12]): 50 µM | Most effective time point of addition after the end of OGD (SH-SY5Y cells [8]; [12]): 8 h

Compound: O=C(NC12CC3CC(CC(C3)C1)C2)c1ccc(-c2cssc2=S)cc1 [ACS48-amantadine]
Cell viabilities of SH-SY5Y cells after MPP+ (SH-SY5Y cells [9]; 5 μM added 30 min after 5 mM MPP+): improved cell viabilities | Cell viabilities of SH-SY5Y cells after MPP+ (SH-SY5Y cells [9]; [13]): improved cell viabilities

Compound: CC12CC3CC(C)(C1)CC(NC(=O)c1ccc(C(N)=S)cc1)(C3)C2 [CTBA-memantine]
Cell viabilities of SH-SY5Y cells after MPP+ (SH-SY5Y cells [9]; [13]): improved cell viabilities

Compound: CC12CC3CC(C)(C1)CC(N)(C3)C2 [memantine]
Cell viabilities after Aβ1-42 [1]: improved cell viabilities | Swimming speed in Morris water-maze test (mice challenged with LPS; 45 μmol/kg i.p.): did not change it | Swimming speed in Morris water-maze test (mice challenged with LPS; 90 μmol/kg i.p.): slowed swimming speed | Glutamate-induced calcium accumulation ([2]; 20 μM, 100 μM glutamate): suppressed calcium accumulation | Effect of memantine on intracellular sulfide levels (SH-SY5Y cells [3]; 20 μM memantine, cells incubated with or without ACS48 20 μM): did not affect intracellular sulfide levels | Akt phosphorylation after OGD [10]: did not affect Akt phosphorylation | LPS-induced tau phosphorylation at serine 202 and threonine 205 in mice hippocampus ([11]; 45 μmol/kg pretreatment): prevented LPS-induced tau phosphorylation | LDH release caused by Na2S or ACS48 on co-incubation with memantine ([4]; 50 μM Na2S or ACS48 plus 50 μM memantine): abolished | Cell viabilities after Aβ1-42 (SH-SY5Y [5]): improved cell viabilities | GSH levels, memantine per se (SH-SY5Y [6]; 50 μM, 8 hours): did not affect GSH levels | Aβ1-42 accumulation in mice cortex, or hippocampus (Aβ1-42; 45 μmol/kg pretreatment, LPS challenge for 7 days): prevented Aβ1-42 accumulation

Compound: Sodium sulfide [Na2S]
Latency until getting platform in Morris water-maze test (mice challenged with LPS; mouse, in vivo): improved latency | Glutamate-induced calcium accumulation [2]: augmented glutamate-induced calcium accumulation | Increase of intracellular calcium [Ca2+]i [2]: increased | Intracellular sulfide levels (SH-SY5Y cells [3]): increased intracellular sulfide levels | Time of peak intracellular sulfide levels after addition (SH-SY5Y cells [3]): around 1.5 hours | LPS-induced tau phosphorylation at serine 202 and threonine 205 in mice hippocampus ([11]; mouse, in vivo): prevented LPS-induced tau phosphorylation | Intracellular GSH levels (SH-SY5Y [6]): increased intracellular GSH levels; also recorded: restored intracellular GSH levels | Cell viability after OGD (LDH release) (SH-SY5Y cells [8]): did not improve cell viability; also recorded: failed to improve cell viability; also recorded: No significant difference | Aβ1-42 accumulation in mice cortex, or hippocampus (Aβ1-42; mouse, in vivo): prevented Aβ1-42 accumulation | Prevention of Aβ1-42 accumulation compared with memantine (Aβ1-42; mouse, in vivo): prevented Aβ1-42 accumulation more markedly than did memantine
